Laboratory results as given in patent US6706663B2, “Herbicidal 3-heterocyclic substituted benzisothiazole and benzisoxazole compounds” (Wyeth, priority 2000, dated 2004).

What was measured:
[1] = tested on: SAGPY (Sagittaria pygmaea); assay: Flooded paddy, preemergence weed control; format: in vivo, L.; details: rated 3-4 weeks after treatment, 0-9 rating scale
Procedure, shortened: (§1)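 Preemergence, flooded: propagules planted at 0.5 cm depth in silt loam, water level maintained at 1.5 to 3 cm over soil, containers kept on greenhouse benches. Activity scored 0-9 by eye relative to a control plant.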

[2] = tested on: ECHCG (Echinochloa crus-galli); assay: Postemergence herbicidal evaluation; format: in vivo, (L.) Beau
Procedure, shortened: (§2)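 Visual 0–9 injury scores versus control plants, covering stand, vigour, malformation, size, chlorosis and general appearance, taken four to five weeks post-spray and averaged over replicate tests. Plants were sprayed at roughly two weeks old and held on greenhouse benches.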

[3] = tested on: ORYSAT (Rice, Tebonnet); assay: Preemergence herbicidal evaluation; format: in vivo, Oryza sativa, (L.) Tebonnet; details: preemergence, rated 4-5 weeks after treatment
[4] = tested on: SETVI (Setaria viridis); assay: Postemergence herbicidal evaluation; format: in vivo, (L.) Beau
Procedure, shortened: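 Ratings use a 0-9 visual scale covering stand, vigor, malformation, size, chlorosis and appearance versus a control, scored 4-5 weeks post-spray. Roughly two-week-old seedlings received about 0.0040-1.000 kg/ha active, applied in 50/50 acetone/water with 0.5% TWEEN 20. Multiple tests per compound were averaged.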

[5] = tested on: IPOHE (Ipomoea hederacea); assay: Postemergence herbicidal evaluation; format: in vivo, (L.) Jacq.
Procedure, shortened: as §2

[6] = tested on: MOOVA (Monochoria vaginalis); assay: Flooded paddy, preemergence weed control; format: in vivo, Presl.; details: rated 3-4 weeks after treatment, 0-9 rating scale
Procedure, shortened: as §1

[7] = tested on: ABUTH (Abutilon theophrasti); assay: Postemergence herbicidal evaluation; format: in vivo, Medic.
Procedure, shortened: as §2

[8] = tested on: CYPIR (Cyperus iria); assay: Flooded paddy, preemergence weed control; format: in vivo; details: rated 3-4 weeks after treatment, 0-9 rating scale
Procedure, shortened: as §1

[9] = tested on: ZEAMX (Corn, Field); assay: Postemergence herbicidal evaluation; format: in vivo, Zea mays, L.
Procedure, shortened: as §2

[10] = tested on: ECHORC (Echinochloa oryzoides); assay: Flooded paddy, preemergence weed control; format: in vivo, Echinochloa oryzoides (Ard.) Fritsch.; details: rated 3-4 weeks after treatment, 0-9 rating scale
Procedure, shortened: as §1

[11] = tested on: GLXMAW (Soybean, Williams); assay: Postemergence herbicidal evaluation; format: in vivo, Glycine max, (L.) Merr. cv Williams
Procedure, shortened: as §2

[12] = tested on: ORYSAT (Rice, Tebonnet); assay: Postemergence herbicidal evaluation; format: in vivo, Oryza sativa, (L.) Tebonnet
Procedure, shortened: as §2

[13] = tested on: ORYSAT (Rice, Tebonnet); assay: Flooded paddy, post-transplant rice tolerance; format: in vivo, Oryza sativa, (L.) Tebonnet; details: flooded paddy, post-transplant rice, rated 3-4 weeks after treatment, 0-9 rating scale
Procedure, shortened: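 Two ten-day-old seedlings were transplanted into silt loam, flooded and held at 1.5 to 3 cm water above the soil before herbicide treatment. Pots stayed in the greenhouse at that water level. Injury was scored visually on a 0-9 scale versus untreated control.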

[14] = tested on: IPOHE (Ipomoea hederacea); assay: Preemergence herbicidal evaluation; format: in vivo, (L.) Jacq.; details: preemergence, rated 4-5 weeks after treatment
[15] = tested on: CHEAL (Chenopodium album); assay: Preemergence herbicidal evaluation; format: in vivo, L.; details: preemergence, rated 4-5 weeks after treatment
Procedure, shortened: (§3)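 Rating 0–9, visual, vs control; 4–5 wk after spraying seeded cups with compound in aq. acetone; conventional greenhouse care.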

[16] = tested on: CASOB (Cassia obtusifolia); assay: Preemergence herbicidal evaluation; format: in vivo, L.; details: preemergence, rated 4-5 weeks after treatment
Procedure, shortened: as §3

[17] = tested on: AMBEL (Ambrosia artemisifolia); assay: Preemergence herbicidal evaluation; format: in vivo, L.; details: preemergence, rated 4-5 weeks after treatment
Procedure, shortened: as §3

[18] = tested on: GALAP (Galium aparine); assay: Postemergence herbicidal evaluation; format: in vivo
Procedure, shortened: as §2

[19] = tested on: SETVI (Setaria viridis); assay: Preemergence herbicidal evaluation; format: in vivo, (L.) Beau; details: preemergence, rated 4-5 weeks after treatment
Procedure, shortened: as §3

[20] = tested on: ECHCG (Echinochloa crus-galli); assay: Preemergence herbicidal evaluation; format: in vivo, (L.) Beau; details: preemergence, rated 4-5 weeks after treatment
Procedure, shortened: as §3

Cn1c(C(F)(F)F)cc(=O)n(-c2ccc3snc(-c4ccsc4)c3c2)c1=O [Compound 1, 1-methyl-3-[3-(3-thienyl)-1,2-benzisothiazol-5-yl]-6-(trifluoromethyl)uracil]
herbicidal rating, SAGPY ([1]; rate 0.0080 kg/ha): 4.0 | herbicidal rating, SAGPY ([1]; rate 0.0320 kg/ha): 4.0 | herbicidal rating, SAGPY ([1]; rate 0.1250 kg/ha): 5.5 | Postemergence herbicidal rating, ECHCG ([2]; rate 0.0320 kg/ha): 2.0 | Postemergence herbicidal rating, ECHCG ([2]; rate 0.0620 kg/ha): 2.5 | Postemergence herbicidal rating, ECHCG ([2]; rate 0.1250 kg/ha): 4.0 | ORYSAT preemergence herbicidal rating ([3]; Rate 0.0620 kg/ha): 5.0 | ORYSAT preemergence herbicidal rating ([3]; Rate 0.1250 kg/ha): 5.0 | ORYSAT preemergence herbicidal rating ([3]; Rate 0.2500 kg/ha): 6.5 | Postemergence herbicidal rating, SETVI ([4]; rate 0.0320 kg/ha): 7.0 | Postemergence herbicidal rating, SETVI ([4]; rate 0.0620 kg/ha): 6.5 | Postemergence herbicidal rating, SETVI ([4]; rate 0.1250 kg/ha): 8.0 | Postemergence herbicidal rating, IPOHE ([5]; rate 0.0320 kg/ha): 9.0 | Postemergence herbicidal rating, IPOHE ([5]; rate 0.0620 kg/ha): 9.0 | Postemergence herbicidal rating, IPOHE ([5]; rate 0.1250 kg/ha): 9.0 | herbicidal rating, MOOVA ([6]; rate 0.0080 kg/ha): 9.0 | herbicidal rating, MOOVA ([6]; rate 0.0320 kg/ha): 9.0 | herbicidal rating, MOOVA ([6]; rate 0.1250 kg/ha): 9.0 | Postemergence herbicidal rating, ABUTH ([7]; rate 0.0320 kg/ha): 9.0 | Postemergence herbicidal rating, ABUTH ([7]; rate 0.0620 kg/ha): 9.0 | Postemergence herbicidal rating, ABUTH ([7]; rate 0.1250 kg/ha): 9.0 | herbicidal rating, CYPIR ([8]; rate 0.0080 kg/ha): 9.0 | herbicidal rating, CYPIR ([8]; rate 0.0320 kg/ha): 9.0 | herbicidal rating, CYPIR ([8]; rate 0.1250 kg/ha): 9.0 | Postemergence herbicidal rating, ZEAMX ([9]; rate 0.0320 kg/ha): 5.5 | Postemergence herbicidal rating, ZEAMX ([9]; rate 0.0620 kg/ha): 5.8 | Postemergence herbicidal rating, ZEAMX ([9]; rate 0.1250 kg/ha): 6.0 | herbicidal rating, ECHORC ([10]; rate 0.0080 kg/ha): 6.0 | herbicidal rating, ECHORC ([10]; rate 0.0320 kg/ha): 9.0 | herbicidal rating, ECHORC ([10]; rate 0.1250 kg/ha): 9.0 | Postemergence herbicidal rating, GLXMAW ([11]; rate 0.0320 kg/ha): 6.8 | Postemergence herbicidal rating, GLXMAW ([11]; rate 0.0620 kg/ha): 7.0 | Postemergence herbicidal rating, GLXMAW ([11]; rate 0.1250 kg/ha): 7.8 | Postemergence herbicidal rating, ORYSAT ([12]; rate 0.0320 kg/ha): 3.5 | Postemergence herbicidal rating, ORYSAT ([12]; rate 0.0620 kg/ha): 3.5 | Postemergence herbicidal rating, ORYSAT ([12]; rate 0.1250 kg/ha): 5.0 | herbicidal rating, ORYSAT (rice tolerance) ([13]; rate 0.0080 kg/ha): 4.0 | herbicidal rating, ORYSAT (rice tolerance) ([13]; rate 0.0320 kg/ha): 5.5 | herbicidal rating, ORYSAT (rice tolerance) ([13]; rate 0.1250 kg/ha): 7.0 | IPOHE preemergence herbicidal rating ([14]; Rate 0.0620 kg/ha): 8.0 | IPOHE preemergence herbicidal rating ([14]; Rate 0.1250 kg/ha): 9.0 | IPOHE preemergence herbicidal rating ([14]; Rate 0.2500 kg/ha): 9.0 | CHEAL preemergence herbicidal rating ([15]; Rate 0.0620 kg/ha): 9.0 | CHEAL preemergence herbicidal rating ([15]; Rate 0.1250 kg/ha): 9.0 | CHEAL preemergence herbicidal rating ([15]; Rate 0.2500 kg/ha): 9.0 | CASOB preemergence herbicidal rating ([16]; Rate 0.0620 kg/ha): 7.3 | CASOB preemergence herbicidal rating ([16]; Rate 0.1250 kg/ha): 8.3 | CASOB preemergence herbicidal rating ([16]; Rate 0.2500 kg/ha): 8.3 | AMBEL preemergence herbicidal rating ([17]; Rate 0.0620 kg/ha): 7.3 | AMBEL preemergence herbicidal rating ([17]; Rate 0.1250 kg/ha): 9.0 | AMBEL preemergence herbicidal rating ([17]; Rate 0.2500 kg/ha): 9.0 | Postemergence herbicidal rating, GALAP ([18]; rate 0.0320 kg/ha): 5.0 | Postemergence herbicidal rating, GALAP ([18]; rate 0.0620 kg/ha): 6.5 | Postemergence herbicidal rating, GALAP ([18]; rate 0.1250 kg/ha): 7.5 | SETVI preemergence herbicidal rating ([19]; Rate 0.0620 kg/ha): 9.0 | SETVI preemergence herbicidal rating ([19]; Rate 0.1250 kg/ha): 9.0 | SETVI preemergence herbicidal rating ([19]; Rate 0.2500 kg/ha): 9.0 | ECHCG preemergence herbicidal rating ([20]; Rate 0.0620 kg/ha): 7.3 | ECHCG preemergence herbicidal rating ([20]; Rate 0.1250 kg/ha): 8.0 | ECHCG preemergence herbicidal rating ([20]; Rate 0.2500 kg/ha): 9.0
